Measured values: US20220389515A1, “USE OF BIOMARKERS TO PREDICT CLINICAL SENSITIVITY TO 2-(4-CHLOROPHENYL)-N-((2-(2,6-DIOXOPIPERIDIN-3-YL)-1-OXOISOINDOLIN-5-YL)METHYL)-2,2-DIFLUOROACETAMIDE” (priority 2019, published 2022)

Key:
[1] = relative humidity increased from about 0% to about 90% RH; cited from earlier work
Ikaros = Ikaros (Homo sapiens, UniProt Q13422+Q96SW2); details: U937-Cas9; 18 hours
Procedure: Cells were treated with DMSO or Compound D in the presence of cycloheximide. FIGS. 8D and 8E show the immunoblot analysis of U937-Cas9 cells stably expressing HA-tagged GSPT1 and the indicated sgRNAs. Cells were treated with DMSO, Compound D (FIG. 8D) or pomalidomide (POM; FIG. 8E) at the indicated concentrations for 18 hours.
To understand whether the effect of mTOR activation on Compound D-induced GSPT1 degradation can be ascribed to an increased rate of GSPT1 protein synthesis and/or a decreased rate of GSPT1 degradation, the change of GSPT1 protein half-life in response to TSC1 or TSC2 loss in the presence or absence of Compound D was determined.

GSPT1 = molecular target: T1, GSPT1 (Homo sapiens, UniProt P15170); test: Immunoblot analysis of Compound D-induced GSPT1 degradation in AML cells; type: cell-based; details: U937 parental, TSC1-/- and TSC2-/- cells
T1 construct: endogenous in cells; host or cells: KG-1 (TMT proteomics); KG1, U937 / U937-Cas9, MOLM-13, OCI-AML2 (immunoblots)
T1 sequence (P15170 1-637 isoform P15170-3): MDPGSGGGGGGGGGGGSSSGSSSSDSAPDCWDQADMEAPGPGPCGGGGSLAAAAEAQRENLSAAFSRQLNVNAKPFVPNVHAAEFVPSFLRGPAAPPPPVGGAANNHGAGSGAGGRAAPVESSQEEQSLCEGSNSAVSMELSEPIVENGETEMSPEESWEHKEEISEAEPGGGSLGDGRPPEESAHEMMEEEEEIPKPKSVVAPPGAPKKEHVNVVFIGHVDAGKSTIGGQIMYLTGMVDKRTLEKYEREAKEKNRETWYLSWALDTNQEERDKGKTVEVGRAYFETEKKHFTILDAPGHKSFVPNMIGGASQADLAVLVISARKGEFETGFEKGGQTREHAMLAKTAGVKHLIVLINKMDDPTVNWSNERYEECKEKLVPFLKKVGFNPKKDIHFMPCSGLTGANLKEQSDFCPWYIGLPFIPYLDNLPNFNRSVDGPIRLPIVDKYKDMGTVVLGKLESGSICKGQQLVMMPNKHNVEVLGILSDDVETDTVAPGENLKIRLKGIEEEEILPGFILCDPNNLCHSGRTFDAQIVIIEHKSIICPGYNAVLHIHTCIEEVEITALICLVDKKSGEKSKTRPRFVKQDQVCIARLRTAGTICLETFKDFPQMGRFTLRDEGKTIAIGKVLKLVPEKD
T1 sequence (Q96SW2 whole entry partner): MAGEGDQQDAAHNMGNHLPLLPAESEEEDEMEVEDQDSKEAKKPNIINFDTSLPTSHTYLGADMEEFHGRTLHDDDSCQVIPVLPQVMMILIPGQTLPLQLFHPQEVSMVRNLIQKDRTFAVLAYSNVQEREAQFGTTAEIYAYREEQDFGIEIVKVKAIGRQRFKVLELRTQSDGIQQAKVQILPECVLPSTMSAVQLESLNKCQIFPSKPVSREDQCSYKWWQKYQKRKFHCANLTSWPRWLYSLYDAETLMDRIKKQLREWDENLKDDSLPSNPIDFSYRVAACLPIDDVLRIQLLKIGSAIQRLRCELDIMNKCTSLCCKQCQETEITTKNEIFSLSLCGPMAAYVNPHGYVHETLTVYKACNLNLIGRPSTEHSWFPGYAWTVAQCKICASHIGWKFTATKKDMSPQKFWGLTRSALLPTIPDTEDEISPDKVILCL
T1 sequence (Q16531 2-1140 partner): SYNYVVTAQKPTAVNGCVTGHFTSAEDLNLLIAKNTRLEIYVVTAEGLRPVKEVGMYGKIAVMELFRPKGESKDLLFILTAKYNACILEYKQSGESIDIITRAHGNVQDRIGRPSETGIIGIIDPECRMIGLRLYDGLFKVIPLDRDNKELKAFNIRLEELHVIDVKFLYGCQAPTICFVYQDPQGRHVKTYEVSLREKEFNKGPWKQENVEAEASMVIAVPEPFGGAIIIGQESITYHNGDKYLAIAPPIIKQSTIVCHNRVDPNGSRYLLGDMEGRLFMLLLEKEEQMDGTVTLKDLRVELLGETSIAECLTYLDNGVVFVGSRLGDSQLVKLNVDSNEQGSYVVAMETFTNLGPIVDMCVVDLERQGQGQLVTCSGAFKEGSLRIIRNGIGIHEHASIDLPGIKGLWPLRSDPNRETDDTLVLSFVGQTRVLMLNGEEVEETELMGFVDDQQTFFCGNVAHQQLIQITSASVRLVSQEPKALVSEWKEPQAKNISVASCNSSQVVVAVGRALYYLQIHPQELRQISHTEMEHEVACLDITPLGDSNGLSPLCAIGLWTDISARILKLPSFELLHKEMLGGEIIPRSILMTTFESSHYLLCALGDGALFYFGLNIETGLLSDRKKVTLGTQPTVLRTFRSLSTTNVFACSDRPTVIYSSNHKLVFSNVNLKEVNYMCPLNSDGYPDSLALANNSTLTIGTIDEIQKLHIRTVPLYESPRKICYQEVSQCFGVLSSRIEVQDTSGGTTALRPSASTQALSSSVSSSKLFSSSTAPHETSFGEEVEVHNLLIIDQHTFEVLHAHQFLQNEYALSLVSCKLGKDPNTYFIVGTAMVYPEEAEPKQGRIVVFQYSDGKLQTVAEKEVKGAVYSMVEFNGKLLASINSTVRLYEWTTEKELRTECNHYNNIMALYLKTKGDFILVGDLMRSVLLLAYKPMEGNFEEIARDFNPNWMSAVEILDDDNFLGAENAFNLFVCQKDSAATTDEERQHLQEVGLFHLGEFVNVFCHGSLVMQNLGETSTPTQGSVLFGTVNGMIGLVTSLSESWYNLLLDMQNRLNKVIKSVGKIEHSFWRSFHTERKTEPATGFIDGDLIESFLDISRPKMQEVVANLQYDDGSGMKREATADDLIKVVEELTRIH
Procedure: FIG. 2A illustrates the volcano plot of differentially abundant proteins in response to Compound D treatment relative to the DMSO control. KG1 cells were treated with DMSO or 100 nM Compound D for 4 hours and subjected to TMT proteomics analysis. The X-axis denotes the log 2-fold change of Compound D versus the DMSO control for each protein. P-values were corrected for multiple hypothesis testing using the Benjamini-Hoschberg method to arrive at an adjusted-P-value (adj-P, also known as a false discovery rate). The y-axis denotes the −log 10 (adj-P) values indicating statistical significance such that proteins lying above the dotted red line are statistically significant findings with adjusted P-values<0.05. FIG. 2B illustrates the immunoblot analysis of KG1 and U937 cells treated with DMSO or Compound D for 4 hours. Where indicated, cells were pretreated with Bortezomib or MLN4924 for 30 minutes. FIGS. 2C and 2D illustrate the immunoblot analysis (FIG. 2C) and cell proliferation (FIG. 2D) of U937-Cas9 parental cells or cells stably transduced with lentiviral vectors expressing a non-targeting sgRNA (sgNT-1), a sgRNA targeting a non-coding region (sgNC-8), or a sgRNA targeting CRBN(sgCRBN-8). Cells were treated with DMSO or Compound D at indicated concentrations. FIGS. 2E and 2F illustrate the immunoblot analysis (left panel) and cell proliferation (right panel) of MOLM-13 (FIG. 2E) and OCI-AML2 (FIG. 2F) parental and CRBN−/− cells. Cells were treated with DMSO or Compound D at indicated concentrations. Results shown in all figure panels are representative of three biological replicates. Data in FIGS. 2D, 2E (right panel), and 2F (right panel) are shown as mean±SD, n=3 technical replicates.
FIG. 3A illustrates FLAG-HA tagged cereblon wild-type (FLAG-HA-CRBN) or Y384A/W386A mutant (FLAG-HA-YWAA) produced in 293FT CRBN−/− cells was used to capture V5 tagged GSPT1 (GSPT1-V5) and V5 tagged IKZF1 (IKZF1-V5) transiently expressed in 293FT CRBN−/− cells. […] FIG. 3B illustrates the surface representation of GSPT1 in complex with cereblon, DDB1 and Compound D, with DDB1 shown in purple, cereblon in blue, and GSPT1 in orange. The position of Compound D is shown with a white arrow. FIG. 3C illustrates the Fo-Fc omit electron density (green mesh) for Compound D (yellow sticks) contoured at 3.06. FIG. 3D illustrates GSPT1's interaction with cereblon is mediated by a β-hairpin loop. Hydrogen bond interactions between cereblon and the GPST1 β-hairpin are shown as yellow dashes. FIG. 3E illustrates details of the binding interface between cereblon and GSPT1. Compound D is represented as yellow sticks. Predicted polar interactions between Compound D and cereblon are shown as yellow dashes. FIG. 3F illustrates the immunoblot analysis of U937 parental cells or cells stably expressing HA-GSPT1-G575N. Cells were treated with DMSO or Compound D at the indicated concentrations. FIGS. 3G and 311 illustrate the immunoblot analysis (left panel) and cell proliferation (right panel) of MOLM-13 (FIG. 3G) and OCI-AML2 (FIG. 311) parental cells and cells stably expressing HA tagged GSPT1-G575N. Cells were treated with DMSO or Compound D at indicated concentrations.
Like all other cereblon modulators, Compound D contains a glutarimide ring (FIG. 1A) that can bind cereblon and redirect it to target neosubstrates for degradation. Thus, the effect of Compound D on the global proteome in AML cell line KG-1 was assessed using tandem mass tag (TMT) quantitative mass spectrometry.
Specifically, U937 cells stably expressing Cas9 were infected with lentiviral vectors constitutively expressing RFP and non-targeting or non-coding sgRNA (sgNT) controls, or sgRNAs targeting TSC1 or TSC2. Infected cells were selected with 1 μg/ml puromycin. […]

Chain of Ikaros (Q96SW2 whole entry): as the sequence (Q96SW2 whole entry partner) above
Chain of Ikaros (Q13422 whole entry): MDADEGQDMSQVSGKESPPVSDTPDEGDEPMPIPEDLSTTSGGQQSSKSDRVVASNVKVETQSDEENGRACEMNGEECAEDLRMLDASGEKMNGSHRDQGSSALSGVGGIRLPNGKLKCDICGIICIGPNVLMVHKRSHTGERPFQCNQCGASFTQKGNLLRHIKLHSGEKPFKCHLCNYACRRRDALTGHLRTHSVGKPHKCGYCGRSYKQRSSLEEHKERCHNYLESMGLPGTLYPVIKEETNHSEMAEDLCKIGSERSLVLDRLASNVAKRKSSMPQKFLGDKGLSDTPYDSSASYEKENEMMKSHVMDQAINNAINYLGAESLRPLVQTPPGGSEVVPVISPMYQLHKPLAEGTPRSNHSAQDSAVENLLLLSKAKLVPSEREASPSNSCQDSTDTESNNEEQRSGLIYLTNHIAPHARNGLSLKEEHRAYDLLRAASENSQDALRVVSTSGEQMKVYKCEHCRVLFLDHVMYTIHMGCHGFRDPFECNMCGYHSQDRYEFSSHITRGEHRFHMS
Chain of Ikaros (Q16531 whole entry, further chain): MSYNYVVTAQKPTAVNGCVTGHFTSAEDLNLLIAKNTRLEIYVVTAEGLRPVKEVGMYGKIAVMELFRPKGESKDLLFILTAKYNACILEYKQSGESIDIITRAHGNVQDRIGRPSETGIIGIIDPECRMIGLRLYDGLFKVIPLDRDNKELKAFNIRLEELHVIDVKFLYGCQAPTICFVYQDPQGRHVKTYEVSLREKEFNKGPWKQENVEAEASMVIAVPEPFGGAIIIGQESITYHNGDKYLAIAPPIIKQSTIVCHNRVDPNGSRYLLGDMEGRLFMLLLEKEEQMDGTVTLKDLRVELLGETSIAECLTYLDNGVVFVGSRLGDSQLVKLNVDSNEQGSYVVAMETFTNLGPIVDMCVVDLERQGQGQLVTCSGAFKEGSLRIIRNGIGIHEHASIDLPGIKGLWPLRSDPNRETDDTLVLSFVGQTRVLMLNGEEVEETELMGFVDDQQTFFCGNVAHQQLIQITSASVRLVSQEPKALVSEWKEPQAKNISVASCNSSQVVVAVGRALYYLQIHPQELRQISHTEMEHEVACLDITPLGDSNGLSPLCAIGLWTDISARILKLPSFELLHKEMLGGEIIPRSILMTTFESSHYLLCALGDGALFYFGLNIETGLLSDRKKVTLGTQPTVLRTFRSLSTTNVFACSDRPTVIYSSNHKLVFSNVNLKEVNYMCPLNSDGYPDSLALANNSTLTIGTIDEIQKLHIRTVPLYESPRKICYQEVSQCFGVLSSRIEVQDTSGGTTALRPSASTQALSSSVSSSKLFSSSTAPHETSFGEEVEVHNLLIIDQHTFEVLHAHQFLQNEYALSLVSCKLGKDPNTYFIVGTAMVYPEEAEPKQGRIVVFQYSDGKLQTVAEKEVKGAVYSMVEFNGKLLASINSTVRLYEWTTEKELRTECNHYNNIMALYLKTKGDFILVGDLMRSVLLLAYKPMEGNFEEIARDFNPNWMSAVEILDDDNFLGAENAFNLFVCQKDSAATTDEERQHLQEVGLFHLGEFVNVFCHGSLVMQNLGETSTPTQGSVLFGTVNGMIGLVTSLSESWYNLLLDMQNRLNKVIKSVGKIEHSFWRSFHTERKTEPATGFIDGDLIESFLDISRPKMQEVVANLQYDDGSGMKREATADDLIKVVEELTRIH

Row | Compound | water uptake [1] | also measured
1 | O=C1CCC(N2Cc3cc(CNC(=O)C(F)(F)c4ccc(Cl)cc4)ccc3C2=O)C(=O)N1 (centres unmarked) [Form A, 2-(4-chlorophenyl)-N-((2-(2,6-dioxopiperidin-3-yl)-1-oxoisoindolin-5-yl)methyl)-2,2-difluoroacetamide] | about 1.2 % w/w | 
2 | Nc1cccc2c1C(=O)N(C1CCC(=O)NC1=O)C2=O (centres unmarked) [pomalidomide] |  | degradation of Ikaros under TSC1 or TSC2 deficiency (Ikaros): did not affect the degradation of Ikaros by pomalidomide
3 | O=C1CCC(N2Cc3cc(CNC(=O)C(F)(F)c4ccc(Cl)cc4)ccc3C2=O)C(=O)N1 (centres unmarked) [Form C, 2-(4-chlorophenyl)-N-((2-(2,6-dioxopiperidin-3-yl)-1-oxoisoindolin-5-yl)methyl)-2,2-difluoroacetamide] | about 0.6 % w/w | 
4 | O=C1CCC(N2Cc3cc(CNC(=O)C(F)(F)c4ccc(Cl)cc4)ccc3C2=O)C(=O)N1 (centres unmarked) [Form B, 2-(4-chlorophenyl)-N-((2-(2,6-dioxopiperidin-3-yl)-1-oxoisoindolin-5-yl)methyl)-2,2-difluoroacetamide] | about 1.4 % w/w | 
5 | C[C@@H]1C[C@@H]([C@H](O)CC2CC(=O)NC(=O)C2)C(=O)[C@@H](C)C1 [cycloheximide, reference compound] |  | protein level of GSPT1, cycloheximide treatment alone (GSPT1): did not show much effect on the protein level of GSPT1
